# From patent US5552267A, “Solution for prolonged organ preservation” (priority 1994, dated 1996)
# “Also recorded” adds a separate entry of the source. Where a SMILES comes first, the peptide text is derived from it.
# Columns and labels:
# [1] = test system: heart; assay: heterotopic rat cardiac transplant, cAMP series, graft survival/score; format: in vivo, rat (male Sprague-Dawley); settings: 12 h in LR
# From the text: Preservation solutions included lactated Ringer's (LR) solution Baxter, Edison, N.J.), or LR supplemented with rolipram ZK 62 711, Schering AG, Berlin, Germany), indolidan LY195115, Lilly Research Laboratories, Indianapolis, Ind.), sodium butyrate, 8-bromoadenosine, 8-bromoadenosine 3',5'monophosphate (8-Br-cAMP; Sigma Chemical Co., St. Louis, Mo.), the Rp -isomer of adenosine 3',5'monophosphorothioate (Rp -cAMPS; Biolog, La Jolla, Calif.), the Sp isomer of adenosine 3',5'monophosphorothioate (Sp -cAMPS; Biolog), and N^6,O^2' -dibutyryl adenosine 3',5'monophosphate sodium (db-cAMP; Aldrich, Milwaukee, Wis.). Components were combined within 4 hrs of donor cardiectomy, and preservation solutions were kept at 4° C. University of Wisconsin solution (UW)(2-4 was purchased from Dupont (Wilmington, Del.).
# Donor Cardiectomy. Male Sprague-Dawley rats (350-450 grams, Camm Research, Wayne, N.J.) were anesthetized, heparinized (1000 units of heparin given intravenously), and the donor heart removed in the following manner; a midline incision was performed, followed by rapid cardioplegic arrest with 5 ml of cold (4° C.), high potassium solution (NACl, 0.9%, and KCl, 40 mEq/L). The heart was maintained at 4° C. throughout the harvest procedure by the application of a cold saline soaked gauze over its surface. […] The aortic root was flushed with ≈15 ml of the cold preservation solution until the coronary arteries became visibly clear, and the heart remained in the cold storage solution for the indicated duration until the time of transplantation.
# Heterotopic Transplant. The same breed/size of rat was used, and similarly anesthetized, but not given heparin. A midline abdominal incision was made, and the infrarenal aorta and vena cava were occluded with a side-biting vascular clamp and longitudinal incisions were made in each vessel. The donor heart was removed from the preservation solution and kept moist with saline-soaked gauze. […] Blood flow was restored to the graft (by removal of the clamp) exactly one hour after removal from the cold preservation solution. […] Ten minutes after removal of the cross-clamp, an electrocardiogram was taken (Grass Polygraph, Quincy, Mass.) and the heart was judged by the same blinded investigators throughout based on the presence/absence of regular contractions and a transplant score (0-5, worst-best, respectively) employing the following criteria: contraction (poor=0, average=1, vigorous=2), tissue turgor (hard=0, average=1, soft=2), and color (dusky=0, pink=1). […] The heterotopic cardiac transplant experiments performed in these studies were done by a single surgeon after establishment of this model and acquisition of surgical expertise, with control and experimental groups interspersed throughout the study period to prevent a time-dependent bias pertaining to surgical skills.
# Statistics. Graft survival data and transplant scores were analyzed using the Kruskal-Wallis non-parametric analysis of variance (38). Comparisons of individual treatments were performed using the procedure described by Dunn (39). In addition, the effect of db-cAMP on the time-course of graft failure was quantified by multivariate logistic regression. Graft myeloperoxidase data, microsphere data, and cAMP/adenylate cyclase/phosphodiesterase data from experiments with cultured vascular smooth muscle cells were analyzed by t-tests when 2 treatments were performed or by analysis of variance when 3 or more treatments were performed. In the latter case, post-hoc comparison of treatment groups were tested using Tukey's procedure. Values are expressed as means ±SEM, with a p <0.05 considered statistically significant.
# [2] = test system: cGMP-dependent protein kinase; settings: relative to cGMP; cited from earlier work
# [3] = test system: lung; assay: orthotopic rat left lung transplantation, cGMP series (hemodynamics, oxygenation, recipient survival); format: in vivo, rat (male Lewis); settings: 6 h in EC
# Method: Orthotopic rat left lung transplantation was accomplished using inbred male Lewis rats (250-300 gms), using a modification of a previously described technique^29. The donor rat was anesthetized and heparinized (500 U intravenously), and endotracheal intubation was performed by inserting a 16 gauge angiocatheter into the trachea using blunt cervical dissection, after which the rat was ventilated with room air at a constant rate (100 breaths/minute) and tidal volume (2.5 ml), using a Harvard rodent ventilator. […] The pulmonary artery (PA) and pulmonary vein (PV) were divided, the bronchus ligated with the lung partially inflated and then divided, and the lung removed. The vascular stumps were each pulled through a small plastic cylinder, and a lip of vessel was turned back around the edge and secured in place with a suture to form a "cuff." A small plastic cylinder was inserted into the bronchial stump and secured, and the lung was then wrapped in gauze and submerged in cold preservation solution for the desired interval.
# The recipient rat (gender/size/strain-matched) was similarly anesthetized and intubated (ventilated with 100% oxygen), but not heparinized. A left thoracotomy was performed, the hilum was dissected, and the left bronchus, PA, and PV were isolated, cross-clamped, divided and the native lung was removed from the field. The PA and PV stumps were rinsed with heparinized saline to remove any clot. The donor lung was brought onto the surgical field, and the cylinder (bronchus) and cuffs (PA and PV) were connected rapidly to their respective structures with a simple staying suture. This cuff technique permitted rapid approximation of donor and recipient tissues with no contact of a foreign substance with the luminal vascular surface. The hilar cross-clamp was released, re-establishing blood flow, and the bronchus tie was removed, enabling gas exchange. A snare was then passed around the right PA, and a Millar catheter (2F; Millar Instruments,Houston, Tex.) was introduced through a small hole (surrounded by a pursestring) into the main PA; similarly, a Millar catheter was introduced into the left atrium (LA). A flow probe (Transonics, Ithaca, N.Y.) was then placed around the main PA. Arterial blood gas sampling performed via the left femoral artery.
# Online hemodynamic monitoring was accomplished using MacLab and a Macintosh IIci computer. The hemodynamic parameters that were measured included PA pressure (mm Hg), blood flow (ml/min), LA pressure (mm Hg), as well as arterial oxygen tension (mm Hg) during inspiration of 100% oxygen; pO2 was analyzed with a model ABL-2 dissolved gas analyzer (Radiometer, Copenhagen, Denmark). Pulmonary vascular resistances (PVRs) were calculated as [mean PA pressure-LA pressure]/PA flow. The native lung supported the recipient during the period of warm ischemia (the period during which the donor lung was removed from cold preservation until the time of reperfusion, <10 min. in all instances), but immediately following rapid hemodynamic instrumentation and acquisition of baseline measurements, the native (right) PA was then ligated, and serial measurements (representative solely of the transplanted lung) were taken every five minutes for 30 minutes. Because the native lung was effectively removed from the circulation by ligation of the right PA, these measurements represent function of the transplanted lung. Recipient death was identified by the cessation of cardiac mechanical activity observed through the thoracotomy.
# Preservation solutions were freshly made and coded by a technician not otherwise involved in the experiments, according to a general plan which included both control and experimental groups. […]
# [4] = test system: nitric oxide at lung surface; assay: in vivo pulmonary NO with porphyrinic microsensor; design: species or system rat; settings: during continued reperfusion; A23187 9.5 μM
# Method: Measurements of nitric oxide concentrations in vivo were performed with a two electrode system using a porphyrinic sensor as a working electrode and a platinum wire as an auxiliary/reference electrode. The porphyrinic sensor with a flexible base was lowered onto the exposed surface of the lung using a micromanipulator. A small piezoelectric signal (mechanically generated current) was used to indicate that the sensor had made contact with the tissue surface. NO measurements were begun once the flexible sensor assumed an L-shaped configuration on the tissue surface and the platinum wire was connected to adjacent tissue. Continous amperometric (current-time) measurements were obtained at a constant potential of 0.68 V, during the period of warm ischemia (after the lung was sewn in place but not yet reperfused) and continously as the vascular cross-clamp was released and reperfusion initiated. Topical application of the calcium ionophore (A23187, 9.5 μM; Sigma) and superoxide dismutase (100 U/ml; Sigma) was applied as monitoring was continued.
# [5] = test system: heart; settings: in vivo; cited from earlier work
# [6] = test system: heart; assay: heterotopic rat cardiac transplant, nitric oxide series, graft survival/score; format: in vivo, rat (male Sprague-Dawley); settings: 12 h in LR
# From the text: Male Sprague-Dawley rats (350 grams, Camm Research, Wayne, N.J.) were used, and harvest, preservation, and transplantation procedures performed as described^8. Preservation solutions included lactated Ringer's (LR) solution (Baxter, Edison, N.J.), or LR supplemented with nitroglycerin (DuPont, Wilmington, Del.), sodium nitroprusside (Roche Laboratories, Nutley, N.J.), N^G -monomethyl-L-arginine (L-NMMA; Chembiochem, Salt Lake City, Utah), L-arginine (Sigma Chemical Co., St. Louis, Mo.), or 8-bromoguanosine3',5'monophosphate (8-Br-cGMP; Sigma). Components were combined within 4 hrs of donor cardiectomy, and preservation solutions were kept at 4° C. All of these solutions were at the pH of LR (6.6). University of Wisconsin solution (UW) was purchased from Dupont. […] Ten minutes after removal of the cross-clamp, an electrocardiogram was taken (Grass Polygraph, Quincy, Mass.) and the heart was judged by the same blinded investigators throughout based on the presence/absence of regular contractions and a transplant score (0-5, worst-best, respectively) employing the following criteria: contraction (poor=0, average=1, vigorous=2), tissue turgor (hard=0, average=1, soft=2), and color (dusky=0, pink=1).
# Graft survival data was analyzed by contingency analysis (chi-square). Transplant scores, microsphere perfusion, myeloperoxidase, NO synthase, and platelet serotonin release data were analyzed using ANOVA for unpaired variables with the Tukey test used to discriminate significant differences between group means. Values are expressed as means ±SEM, with a p<0.05 considered statistically significant.
# [7] = test system: cardiac graft vasculature; assay: perfusion of donor grafts by microspheres, nitric oxide series; format: in vivo, rat; settings: 12 h preservation in LR
# Method: Ten minutes after restoration of blood flow, 0.5 ml of 10 μm diameter microspheres (10^6 /ml) (E-Z Trac, Los Angeles, Calif.) was injected into the donor aortic root. Deposition of microspheres in ventricular tissue was assessed following alkaline hydrolysis, washing, and counting of microspheres as described^8, with results expressed as number of spheres per (40×) field per gram of ventricle. A minimum of ten fields were counted and the mean ±SEM is reported.
# [8] = test system: nitric oxide production in heart; assay: direct measurement of coronary vascular and endocardial NO with porphyrinic microsensor; design: species or system rat
# Method: Direct measurement of coronary vascular and endocardial nitric oxide synthesis were made with a porphyrinic microsensor^13 using differential pulse voltammetry or amperometry. Rat hearts were explanted and preserved as described above, and studied fresh (no preservation/transplantation) or after hypothermic preservation in lactated Ringer's (LR) solution, heterotopic transplantation, and 10 minutes of reperfusion. The coronary vasculature was flushed free of blood with LR followed by 4 ml of LR supplemented with L-Arg (2 mM) and bradykinin ([…], Sigma), which was recycled (1 ml/min) through the coronary vasculature by flushing down the cross-clamped aortic root. Aliquots of perfusate were immediately transferred to an anaerobic environment for measurements and compared to an aqueous nitric oxide reference. Differential pulse voltammograms were obtained using a sensor (working electrode), saturated calomel electrode reference, and platinum wire-auxiliary electrode, with a pulse amplitude of 40 mV. Endocardial NO was measured by implanting the sensor in the septal endocardium of a freshly explanted or preserved/transplanted heart, and after the baseline stabilization, […] bradykinin was applied and NO release continuously monitored by amperometry at constant potential of 0.63 V.
structure (smiles),measurement,setting,value
"Nc1ncnc2c1nc(Br)n2[C@@H]1O[C@@H]2COP(=O)(O)O[C@H]2[C@H]1O [8-Br-cAMP, 8-bromoadenosine 3'5'monophosphate]",concentration for optimal/maximal preservation,[1],0.1 mM
same,effect on cardiac preservation,[1],prolonged graft survival
same,graft survival,[1]; 8-Br-cAMP 0.1 mM,100%
same,fold less potent than cGMP in activating cGMP-dependent protein kinase,[2],53 fold
Nc1nc2c(nc(Br)n2[C@@H]2O[C@H](CO)[C@@H](O)[C@H]2O)c(=O)[nH]1 [8-Br-guanosine],effect on lung preservation,[3],without effect
Nc1nc2c(nc(Br)n2[C@@H]2O[C@H](COP(=O)(O)O)[C@@H](O)[C@H]2O)c(=O)[nH]1 [8-bromoguanosine 5'monophosphate],effect on lung preservation,[3],without effect
CNc1ccc2oc(C[C@H]3O[C@@]4(CC[C@H]3C)O[C@H]([C@H](C)C(=O)c3ccc[nH]3)[C@H](C)C[C@H]4C)nc2c1C(=O)O [A23187],effect on decline in NO,[4],did not alter the decline in NO
"N=C(N)NCCC[C@H](N)C(=O)O [L-Arg, L-arginine]",effect in cardiac ischemia models,[5],improve vascular function and outcome
same,effect on graft preservation (words),[6],enhanced preservation
same,effect on graft preservation (words),[6]; listed as L-arginine,enhanced graft survival
same,graft blood flow,[7],enhanced blood flow
"CNC(=N)NCCC[C@H](N)C(=O)O [L-NMMA, N^G -monomethyl-L-arginine]",effect on graft preservation (words),[6],blocked the beneficial effects of L-Arg
same,graft survival,[6]; NTG 0.1 mg/ml where added,0%
same,effect on graft preservation (words),[6]; listed as N^G -monomethyl-L-arginine,no survival of cardiac grafts; also recorded: poor preservation
same,graft blood flow,[7],decreased blood flow
same,effect on NO levels,[8]; transplanted hearts,blocked further NO production
N=C(NCCC[C@H](N)C(=O)O)N[N+](=O)[O-] [N^ω -nitro-L-arginine],effect on graft preservation (words),[6],blocked the beneficial effects of L-Arg
N=c1c[n+](N2CCOCC2)[n-]o1 [SIN-1],effect in cardiac ischemia models,[5],improve vascular function and outcome
"O=NO [acidified sodium nitrite, sodium nitrite]",effect in cardiac ischemia models,[5],blunt myocardial injury and neutrophil accumulation during reperfusion; also recorded: improve vascular function and outcome
NC(N)=NCCC[C@H](NC(=O)[C@H](Cc1ccccc1)NC(=O)[C@@H]1CCCN1C(=O)[C@H](CO)NC(=O)[C@H](Cc1ccccc1)NC(=O)CNC(=O)[C@@H]1CCCN1C(=O)[C@@H]1CCCN1C(=O)[C@@H](N)CCCN=C(N)N)C(=O)O [bradykinin] (H-RPPGFSPFR-OH),endocardial NO plateau following bradykinin challenge,[8]; freshly explanted heart,0.67 ± 0.06 µM
same,endocardial NO plateau following bradykinin challenge,[8]; preserved (38 hrs) heart,0.17 ± 0.05 µM
CC1(C)C(=O)Nc2ccc(C3=NNC(=O)CC3)cc21 [indolidan],effect on cardiac preservation,[1],uniformly enhanced preservation
"CCCC(=O)Nc1ncnc2c1ncn2[C@@H]1O[C@@H]2COP(=O)(O)O[C@H]2[C@H]1O [mb-cAMP, N^6 -monobutyryladenosine 3'5'monophosphate]",fold less potent than cGMP in activating cGMP-dependent protein kinase,[2],313 fold
